Data: PMC8287028 (Frontiers in Veterinary Science, 2021)
Values joined by “and” are separate entries in the source; they are usually repeats but may differ in a detail not shown here. Equal values may be shown once. Read-outs that look alike come from different tables or passages of the source.

Assays:
[1] = cited from earlier work
[2] = target: T1, bovine activated Factor X (Bos taurus, UniProt P00743); assay: Apixaban-calibrated anti-Xa activity (aXa) chromogenic bioassay on plasma of dosed dogs; assay type: in vivo
T1 construct: purchased Diagnostica Stago STA Liquid anti-Xa
T1 sequence (P00743 234-492 limits assumed): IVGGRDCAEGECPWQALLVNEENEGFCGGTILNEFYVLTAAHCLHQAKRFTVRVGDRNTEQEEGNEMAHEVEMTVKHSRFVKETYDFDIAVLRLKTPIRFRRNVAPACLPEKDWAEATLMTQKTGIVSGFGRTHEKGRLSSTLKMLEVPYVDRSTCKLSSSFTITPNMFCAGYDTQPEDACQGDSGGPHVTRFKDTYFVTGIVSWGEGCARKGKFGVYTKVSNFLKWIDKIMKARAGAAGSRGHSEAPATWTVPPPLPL
T1 sequence (P00743 41-180 limits assumed): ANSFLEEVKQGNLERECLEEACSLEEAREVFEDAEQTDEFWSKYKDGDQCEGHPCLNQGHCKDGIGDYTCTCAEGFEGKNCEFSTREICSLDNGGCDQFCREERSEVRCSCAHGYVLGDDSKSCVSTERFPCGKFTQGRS
Method: Coagulation assays were performed on platelet-poor, citrated plasma samples by a reference laboratory (Comparative Coagulation Laboratory, Animal Health Diagnostic Center, Ithaca, NY). […] The assay is configured with a bovine activated Factor X reagent that is added in excess to the test plasma and a chromogenic substrate of Factor Xa (STA Liquid anti-Xa, Diagnostica Stago). Residual, uninhibited Factor Xa cleaves the chromogenic substrate such that the inverse of the color change in the reaction mixture is proportional to the drug concentration in the test plasma. […] A mechanical endpoint method (STA Compact, Diagnostica Stago) and human coagulation reagents were used to measure prothrombin time (Thromboplastin LI, Helena Diagnostics, Beaumont, TX) and activated partial thromboplastin time (Dade Actin FS, Dade Behring, Newark, DE). […] Tissue-factor (1:50,000 final dilution) activated TEG was performed using standard equipment (TEG-5000, Haemonetics, Braintree, MA) as previously reported ([35]), with assays conducted per established guidelines ([36]), with a modification to eliminate the rest time to facilitate rapid sample processing. Thromboelastography assays were conducted by experienced operators using four TEG channels and tracings terminated after maximum amplitude was established. Four values were extracted from TEG tracings: reaction time (R-time), clot formation time (K-time), clot formation angle (alpha), and maximum amplitude (MA).
Pairwise comparisons between continuous variables were conducted with Wilcoxon matched-pairs signed rank test, while comparisons of more than two groups were conducted using the Friedman test with Dunn's post-hoc adjustment. Specifically, the Wilcoxon matched-pairs signed rank tests were used to compare the complete blood count and serum chemistry values between baseline and the +24 h time point. Comparisons of pharmacodynamic variables between baseline values and those at discrete sampling intervals were performed using the Friedman test with Dunn's post-hoc correction for multiple comparisons. […] Alpha was set at 0.05. Statistical analyses were performed using commercial software (Prism 9, GraphPad, La Jolla, CA).

[3] = test system: healthy mixed-breed dogs; assay: Complete blood count before and after apixaban; assay type: in vivo, dog; design: RBC: unit not given beside the values; Neut / Lymph / Mono / Eos / Baso / HCT / MCV / MCH / MCHC: unit not given here; conditions: for Baso / Eos / HCT / Hgb / Lymph / MCH / MCHC / MCV / Mono / Neut / RBC / WBC: individual dogs (Dog 1-6); for WBC: in 10^3/µL (unit assumed)
[4] = cats, cited from earlier work
[5] = test system: citrated whole blood; assay: Tissue-factor activated thromboelastography (TF-TEG) on citrated whole blood of dosed dogs; assay type: in vivo, dog
Method: Catheters were flushed with 0.9% saline, without heparin. […] Coagulation assays were performed on platelet-poor, citrated plasma samples by a reference laboratory (Comparative Coagulation Laboratory, Animal Health Diagnostic Center, Ithaca, NY). […] Residual, uninhibited Factor Xa cleaves the chromogenic substrate such that the inverse of the color change in the reaction mixture is proportional to the drug concentration in the test plasma. […] Assay controls, consisting of human plasma spiked with apixaban (STA Apixaban Controls, Diagnostica Stago) were analyzed before each batch of test samples to confirm assay performance. The apixaban levels in calibrators and controls are defined by the manufacturer from an internal reference assayed by HPLC-MS. […] A mechanical endpoint method (STA Compact, Diagnostica Stago) and human coagulation reagents were used to measure prothrombin time (Thromboplastin LI, Helena Diagnostics, Beaumont, TX) and activated partial thromboplastin time (Dade Actin FS, Dade Behring, Newark, DE). […] Tissue-factor (1:50,000 final dilution) activated TEG was performed using standard equipment (TEG-5000, Haemonetics, Braintree, MA) as previously reported ([35]), with assays conducted per established guidelines ([36]), with a modification to eliminate the rest time to facilitate rapid sample processing. Thromboelastography assays were conducted by experienced operators using four TEG channels and tracings terminated after maximum amplitude was established. Four values were extracted from TEG tracings: reaction time (R-time), clot formation time (K-time), clot formation angle (alpha), and maximum amplitude (MA). Pairwise comparisons between continuous variables were conducted with Wilcoxon matched-pairs signed rank test, while comparisons of more than two groups were conducted using the Friedman test with Dunn's post-hoc adjustment. Specifically, the Wilcoxon matched-pairs signed rank tests were used to compare the complete blood count and serum chemistry values between baseline and the +24 h time point. Comparisons of pharmacodynamic variables between baseline values and those at discrete sampling intervals were performed using the Friedman test with Dunn's post-hoc correction for multiple comparisons. […] Alpha was set at 0.05. Statistical analyses were performed using commercial software (Prism 9, GraphPad, La Jolla, CA).

Q: Which protein-bound [1] does the source give for `COc1ccc(-n2nc(C(N)=O)c3c2C(=O)N(c2ccc(N4CCCCC4=O)cc2)CC3)cc1` [apixaban] here?
A: over 90%

Q: What about the “time to maximal plasma concentrations” value ([1]; dogs, 0.5 mg/kg IV or PO) of the same molecule?
A: 2.8 h

Q: And the oral bioavailability ([1]; dogs, 0.5 mg/kg, liquid formulation with methylcellulose and polysorbate 80)?
A: 80%

Q: What about the “standard PT” value ([1]; dogs, Thromboplastin C-Plus reagent) of the same molecule?
A: not the standard PT

Q: And the “factor Xa-dependent clotting time test (HEPTEST)” value ([1]; dogs)?
A: prolonged

Q: And the “mean aXa activity following intravenous injection” value ([2]; IV 0.18 mg/kg, at mean plasma concentration […])?
A: 650 ng/mL

Q: What about the “Emax (anti-Xa activity)” value ([2]; IV, mean dose 0.18 mg/kg, model E=(Emax x C)/(C+EC50)) of the same molecule?
A: 1400.5 ng/mL

Q: And the “mean aXa activity compared with human values” ([2]; PO 0.2 mg/kg)?
A: remained below values typically observed for human moderate to high dose anticoagulant effect

Q: What about the “aXa corresponding to the mean maximum observed plasma concentration” value ([2]; PO 0.2 mg/kg, 6 h post-dosing) of the same molecule?
A: 128 ng/mL

Q: And the “time of peak aXa activity” value ([2]; following oral administration 0.2 mg/kg)?
A: approximately 5 h

Q: And the Baso ([3]; +24h after IV apixaban)?
A: 0.1 (2×) and 0.0 (4×)

Q: What about the Eos ([3]; +24h after IV apixaban) of the same molecule?
A: 0.3 (2×) and 0.4 (2×) and 0.7 (2×)

Q: And the HCT ([3]; +24h after IV apixaban)?
A: 53 and 52 (2×) and 54 (2×) and 57

Q: And the Hgb ([3]; +24h after IV apixaban)?
A: 17.7 and 17.2 and 16.8 and 17.5 (2×) and 18.3

Q: What about the Lymph ([3]; +24h after IV apixaban) of the same molecule?
A: 2.3 and 2 (2×) and 3.3 and 1.6 and 3.7

Q: What about the MCH ([3]; +24h after IV apixaban) of the same molecule?
A: 25 (3×) and 23 and 24 (2×)

Q: What about the MCHC ([3]; +24h after IV apixaban) of the same molecule?
A: 33 (2×) and 32 (4×)

Q: And the MCV ([3]; +24h after IV apixaban)?
A: 73 and 75 and 71 and 74 and 76 (2×)

Q: What about the Mono ([3]; +24h after IV apixaban) of the same molecule?
A: 0.3 (2×) and 0.6 and 0.5 (3×)

Q: And the Neut ([3]; +24h after IV apixaban)?
A: 4.1 and 5.8 and 5.6 (2×) and 5.1 and 8.0

Q: And the RBC ([3]; +24h after IV apixaban)?
A: 7.2 (2×) and 6.9 and 7.3 (2×) and 7.4

Q: What about the WBC ([3]; +24h after IV apixaban) of the same molecule?
A: 7.1 and 8.8 and 9.6 and 8.9 and 7.6 and 13

Q: What about the Baso ([3]; +30h after PO apixaban) of the same molecule?
A: 0 (3×) and 0.1 and 0.0 (2×)

Q: What about the Eos ([3]; +30h after PO apixaban) of the same molecule?
A: 0.3 (2×) and 0.2 (2×) and 0.4 and 0.6

Q: And the HCT ([3]; +30h after PO apixaban)?
A: 56 and 55 and 52 (2×) and 46 and 50

Q: What about the Lymph ([3]; +30h after PO apixaban) of the same molecule?
A: 3.2 and 2 (2×) and 1.6 and 0.8 and 3.6

Q: What about the MCH ([3]; +30h after PO apixaban) of the same molecule?
A: 24 (2×) and 25 (2×) and 23 (2×)

Q: What about the MCHC ([3]; +30h after PO apixaban) of the same molecule?
A: 33 (4×) and 32 (2×)

Q: And the MCV ([3]; +30h after PO apixaban)?
A: 72 (2×) and 76 and 70 and 75 and 74

Q: What about the Mono ([3]; +30h after PO apixaban) of the same molecule?
A: 0.5 (4×) and 0.4 and 0.3

Q: What about the Neut ([3]; +30h after PO apixaban) of the same molecule?
A: 6.1 (2×) and 5.4 and 7.9 and 5.7 and 7.3

Q: What about the WBC ([3]; +30h after PO apixaban) of the same molecule?
A: 10.1 and 8.3 and 10.8 and 8 and 7.6 and 12.1

Q: What about the RBC ([3]; +30h after PO apixaban, in 10^6/µL (unit assumed)) of the same molecule?
A: 7.8 and 7.3 and 7.4 and 6.2 and 7 and 7.1

Q: And the Hgb ([3]; +30h after PO apixaban, in g/dL (unit assumed))?
A: 18.6 and 18 and 17 and 15.1 and 16.2 and 16.9

Q: What about the CBC parameters ([3]; IV, baseline versus 24 h) of the same molecule?
A: No changes

Q: And the “mean corpuscular hemoglobin concentration” value ([3]; PO, baseline versus 30 h)?
A: significant reduction

Q: And the “time of peak aXa activity” value ([4]; following oral administration)?
A: 4 h

Q: What about the half-life ([4]; intravenously administered apixaban) of the same molecule?
A: 1.13 h

Q: What about the half-life ([4]; oral apixaban) of the same molecule?
A: 3.3 h

Q: And the bioavailability ([4]; oral)?
A: 85.5%

Q: What about the “TF-TEG K-time versus baseline” value ([5]; IV 0.18 mg/kg, at 5 min) of the same molecule?
A: significantly different from baseline

Q: And the “TF-TEG R-time versus baseline” value ([5]; IV 0.18 mg/kg, at 5 min)?
A: significantly different from baseline

Q: And the “TF-TEG alpha angle versus baseline” value ([5]; IV 0.18 mg/kg, at 5 min)?
A: significantly different from baseline

Q: What about the “TF-TEG R-time versus baseline” value ([5]; IV 0.18 mg/kg, at 15 min ([…])) of the same molecule?
A: significantly prolonged

Q: And the TF-TEG tracings ([5]; PO 0.2 mg/kg)?
A: not consistently affected

Q: What about the “TF-TEG R-time versus baseline” value ([5]; PO 0.2 mg/kg, at the 12-h timepoint) of the same molecule?
A: significantly different from baseline
